Measured values reported in patent US20100152240A1, “PYRROLINE-2-ONE DERIVATIVES AGAINST CELL RELEASING TUMOR NECROSIS FACTOR, PREPARATION METHODS AND USES THEREOF” (priority 2006, published 2010).
pEC50: −log10 of the molar value.

Tested on: TNFα released by PBMCs stimulated by LPS
Experiment: Inhibition of the release of TNFα in peripheral blood mononuclear cells (PBMCs) stimulated by lipopolysaccharide (LPS), ELISA
Type: cell-based, human
Conditions: LPS 0.1 μg/mL, 20 hours incubation; for Inhibition Degree: compound concentration 3.0 μM; for pEC50: concentration giving 50% TNFα inhibition
Experimental: Pharmacological Research: Effects on the releasing of TNFα in peripheral blood mononuclear cells (PBMCs) stimulated by lipopolysaccharide (LPS).
Cytokine TNFα released by PBMCs in the peripheral blood stimulated by lipid polysaccharide (LPS) in vitro was studied.
PBMCs were collected from blood of at least three volunteers pretreated with heparin by a gradient separation method, and washed three times with a 1640 culture medium (10% calf serum, 2 mM L-glutamine, […] mercaptoethanol, 50 μg/mL streptomycin, and 50 U/mL penicillin). The obtained PBMCs were then placed into a 24-well cell culture plate and the concentration was adjusted to 1×10^6 cells/mL with 1640 culture medium. The compounds to be tested were dissolved in dimethylsulfoxide to obtain a solution having a required concentration. The solution was added to the above-mentioned cell culture medium and cultured in an incubator (5% CO2, 90% humidity) for 1 hour. Then, LPS (Sigma) was added until the concentration reached 0.1 μg/mL (except for the control).
After 20 hours incubation, the content of TNFα in the supernatant of the PBMC culture medium was assayed by ELISA kit (America Genzyme Co) using standard method. The TNFα inhibition rate was calculated by measured value of the control well (not treated) and the measured value of the test wells (treated with the test compound). The concentration of compounds giving a 50% TNFα inhibition (IC50 value) was calculated using nonlinear regression analysis. Each concentration was determined twice and an average value was practicable.

In the case of `CN1C(=O)CCC(N2Cc3cscc3C2=O)C1=O` (stereo not shown) [Example 10, 1-methyl-3-(4-oxo-4H-thiophene[3,4-c]pyrrol-5(6H)-yl)piperidine-2,6-dione], the “Inhibition Degree” value was 28%.
With `O=C1CCC(N2Cc3c(csc3[N+](=O)[O-])C2=O)C(=O)N1` (stereo not shown) [Example 17, 3-(1-nitro-4-oxo-4H-thiophene[3,4-c]pyrrole-5(6H)-yl)piperidine-2,6-dione] the “Inhibition Degree” value was 19%.
In the case of `Nc1scc2c1CN(C1CCC(=O)NC1=O)C2=O` (stereo not shown) [Example 18, 3-(1-amino-4-oxo-4H-thiophene[3,4-c]pyrrole-5(6H)-yl)piperidine-2,6-dione], the “Inhibition Degree” value was 94% and the pEC50 was 7.22.
`O=C1CCC(N2C(=O)c3cscc3C2=O)CN1` (stereo not shown) [Example 34, 5-(6-oxo-piperidine-3-yl)-5H-thiophene[3,4-c]pyrrole-4,6-dione] was tested, and the “Inhibition Degree” value was 18%.
For `O=C1CCC(N2C(=O)c3ccccc3C2=O)C(=O)N1` (stereo not shown) [Thalidomide, reference compound], the inhibition at 100 µM (Homo sapiens, PBMC, compound concentration 100 μM, read-out: Inhibition Degree) was 22% and the pEC50 (Homo sapiens, PBMC) was 3.74.
With `CC1(N2Cc3cscc3C2=O)CCC(=O)NC1=O` (stereo not shown) [Example 16, 3-methyl-3-(4-oxo-4H-thiophene[3,4-c]pyrrole-5(6H)-yl)piperidine-2,6-dione] the “Inhibition Degree” value was 38%.
In the case of `O=C1CCC(N2Cc3ccsc3C2=O)C(=O)N1` (stereo not shown) [Example 33, 3-(6-oxo-4H-thiophene[3,2-c]pyrrole-5(6H)-yl)piperidine-2,6-dione], the “Inhibition Degree” value was 47%.
In the case of `CCCN1C(=O)CCC(N2Cc3cscc3C2=O)C1=O` (stereo not shown) [Example 11, 3-(4-oxo-4H-thiophene[3,4-c]pyrrol-5(6H)-yl)-1-propylpiperidine-2,6-dione], the “Inhibition Degree” value was 22%.
For `CC1(N2Cc3c(csc3N)C2=O)CCC(=O)NC1=O` (stereo not shown) [Example 20, 3-methyl-3-(1-amino-4-oxo-4H-thiophene[3,4-c]pyrrole-5(6H)-yl)piperidine-2,6-dione], the “Inhibition Degree” value was 76% and the pEC50 was 6.74.
In the case of `O=C1CCC(N2Cc3cscc3C2=O)C(=O)N1` (stereo not shown) [Example 9, 3-(4-oxo-4H-thiophene[3,4-c]pyrrol-5(6H)-yl)piperidine-2,6-dione], the “Inhibition Degree” value was 32%.
